Reference: patent US12102648B2, “Orally-bioavailable nucleoside analogs” (priority 2021, dated 2024)
Where two headings read alike, the source gives them in different places.

Test: in vitro
Format: in vitro ADME
Details: human
Procedure: The bidirectional permeability of compounds across the Caco-2 cell monolayer was assessed. The Caco-2 model is a widely used in vitro model for small intestinal absorption and potential for efflux.
Cell culture. Caco-2 cells were grown in DMEM supplemented with 10% fetal bovine serum (FBS), 1% Penicillin-Streptomycin and 1% MEM NEAA. The cells were incubated at 37° C., 5% CO2/95% air and saturated humidity. After reaching 80-90% confluency, the cells were gently detached with trypsin. Cells at passage 39 were seeded on the 24-well BD insert system at the density of 8×10^4 cells/cm^2 and cultured for 19 days with medium changed every 2-3 days. Measure the transepithelial electrical resistance (TEER) value of each well. The wells can be used only when their TEER values are greater than 600 Ohms/cm^2.
Transport assay. After removing the cell culture medium from the 24-well insert plate, the cells were rinsed with warm transport buffer. Appropriate dosing and receiving solutions were applied to the donor and receiver chambers to initiate the transport assay in apical to basolateral (A to B) or basolateral to apical (B to A) directions ([…] for apical and basolateral wells, respectively). Duplicate wells in each direction were used for the test compound and control compound. The plate was incubated in CO2 incubator at 37° C., with 5% CO2/95% air and saturated humidity without shaking. The sample after 10-minute incubation was used as the T0 sample, and the sample after 90-minute incubation was used as the T90 sample. To and T90 samples were collected from the donor and receiver side of each well at the designed timepoint, mixed with the transport buffer and acetonitrile/MeOH (1:1, v/v) and the internal standard for LC/MS/MS analysis. All samples were vortexed and centrifuged at 4000 rpm at 4° C. for 15 minutes, diluted with pure water and stored at 4° C. before bioanalysis by LC/MS/MS.
Sample analysis. The concentrations of test compounds and control compounds in Caco-2 cells were quantitatively determined by LC/MS/MS method after protein precipitation.
Calculations. The apparent permeability (Papp, cm/s), efflux ratio (ER) and recovery parameters were calculated for Caco-2 drug transport assay using the following equations:
[formula] [formula] where VR is the solution volume in the receiver chamber (0.4 mL on the apical side, 1.2 mL on the basolateral side); Area is the surface area for the insert membrane, i.e., 0.3 cm^2 for the area of the monolayer; Time is incubation time, expressed in seconds, i.e., 5400 s (90 min) for the current experiment; Co is the initial concentration of test compound or peak area ratio of control compounds in the donor chamber (μM); VD is the volume in the donor chambers (0.4 mL on the apical side, 1.2 mL on the basolateral side); CD and CR are the final concentrations of test compounds or peak area ratio of control compounds in donor and receiver chambers, respectively.
Compounds with Papp<1.0 are classified as low permeability, Papp between 1-10 are classified as medium permeability, and Papp≥10 are classified as high permeability. An efflux ratio (ER)>2 indicates the compounds are potential substrates for intestinal cell efflux transporters.

[1] = Caco-2 monolayer, apical to basolateral, 90-minute incubation, read-out: Papp, A-B
[2] = Caco-2 monolayer, basolateral to apical, 90-minute incubation, read-out: Papp, B-A
[3] = Caco-2 monolayer, ER>2 indicates potential efflux transporter substrate, read-out: ER (efflux ratio)

Row | Structure (SMILES) | Papp A→B at 90 min (Caco-2) | Papp B→A at 90 min (Caco-2) | efflux ratio at 90 min (Caco-2) | Papp A→B at 90 min [1] | Papp B→A at 90 min [2] | efflux ratio at 90 min [3]
1 | CC(C)[C@H](N)C(=O)O[C@H]1[C@@H](O)[C@](C#N)(c2ccc3c(NC(=O)c4ccccc4)ncnn23)O[C@@H]1CO [Compound 128, (2R,3S,4R,5R)-5-(4-benzamidopyrrolo[2,1-f][1,2,4]triazin-7-yl)-5-cyano-4-hydroxy-2-(hydroxymethyl)tetrahydrofuran-3-yl L-valinate] | 0.3 ×10⁻⁶ cm/s | 6.4 ×10⁻⁶ cm/s | 22 | – | – | –
2 | CC(C)CC(=O)OC[C@H]1O[C@@](C#N)(c2ccc3c(N)ncnn23)[C@H](O)[C@@H]1OC(=O)CC(C)C [Compound 17, (2R,3S,4R,5R)-5-(4-aminopyrrolo[2,1-f][1,2,4]triazin-7-yl)-5-cyano-4-hydroxy-2-(((3-methylbutanoyl)oxy)methyl)tetrahydro furan-3-yl 3-methylbutanoate] | 15 ×10⁻⁶ cm/s | 21 ×10⁻⁶ cm/s | 1.4 | – | – | –
3 | CC(C)[C@H](N)C(=O)Nc1ncnn2c([C@]3(C#N)O[C@H](CO)[C@@H](O)[C@H]3O)ccc12 [Compound 83, (2S)-2-amino-N-{7-[(2R,3R,4S,5R)-2-cyano-3,4-dihydroxy-5-(hydroxymethyl)oxolan-2-yl]pyrrolo[2,1-f][1,2,4]triazin-4-yl}-3-methylbutanamide] | 0.07 ×10⁻⁶ cm/s | 0.2 ×10⁻⁶ cm/s | 3 | – | – | –
4 | CC(C)C(=O)OC[C@H]1O[C@@](C#N)(c2ccc3c(NC(=O)c4ccccc4)ncnn23)[C@H](O)[C@@H]1O [Compound 108, ((2R,3S,4R,5R)-5-(4-benzamidopyrrolo[2,1-f][1,2,4]triazin-7-yl)-5-cyano-3,4-dihydroxytetrahydrofuran-2-yl)methyl isobutyrate] | 1.5 ×10⁻⁶ cm/s | 2 ×10⁻⁶ cm/s | 1.4 | – | – | –
5 | CC1(C)CCC(CC(=O)OC[C@H]2O[C@@](C#N)(c3ccc4c(N)ncnn34)[C@H](O)[C@@H]2O)CC1 [Compound 272, ((2R,3S,4R,5R)-5-(4-aminopyrrolo[2,1-f][1,2,4]triazin-7-yl)-5-cyano-3,4-dihydroxytetrahydrofuran-2-yl)methyl 2-(4,4-dimethylcyclohexyl)acetate] | 1.2 ×10⁻⁶ cm/s | 0.64 ×10⁻⁶ cm/s | 0.52 | – | – | –
6 | N#C[C@@]1(c2ccc3c(N)ncnn23)O[C@H](COC(=O)CC2CCNCC2)[C@@H](O)[C@H]1O [Compound 267] | 0.42 ×10⁻⁶ cm/s | 0.27 ×10⁻⁶ cm/s | 0.65 | – | – | –
7 | CNc1nc(NC(=O)Cc2ccccc2)nc2c1ncn2[C@@H]1O[C@H](COC(C)=O)[C@@H](O)[C@@]1(C)F [Compound 334, ((2R,3R,4R,5R)-4-fluoro-3-hydroxy-4-methyl-5-(6-(methylamino)-2-(2-phenylacetamido)-9H-purin-9-yl)tetrahydrofuran-2-yl)methyl acetate] | – | – | – | 0.76 ×10⁻⁶ cm/s | 19 ×10⁻⁶ cm/s | 25
8 | N#C[C@@]1(c2ccc3c(N)ncnn23)O[C@H](COC(=O)CC2CCC2)[C@@H](O)[C@H]1O [Compound 265, ((2R,3S,4R,5R)-5-(4-aminopyrrolo[2,1-f][1,2,4]triazin-7-yl)-5-cyano-3,4-dihydroxytetrahydrofuran-2-yl)methyl 2-cyclobutylacetate] | 0.29 ×10⁻⁶ cm/s | 0.36 ×10⁻⁶ cm/s | 1.2 | – | – | –
9 | CCCCCOC(=O)Nc1ncnn2c([C@]3(C#N)O[C@H](CO)[C@@H](OC(=O)Cc4ccccc4)[C@H]3O)ccc12 [Compound 141, (2R,3S,4R,5R)-5-cyano-4-hydroxy-2-(hydroxymethyl)-5-(4-(((pentyloxy)carbonyl)amino)pyrrolo[2,1-f][1,2,4]triazin-7-yl)tetrahydrofuran-3-yl 2-phenylacetate] | – | – | – | 0.14 ×10⁻⁶ cm/s | 0.04 ×10⁻⁶ cm/s | 0.33
10 | CC(C)C(=O)OC[C@H]1O[C@@](C#N)(c2ccc3c(NC(=O)[C@@H](N)Cc4ccc(F)cc4)ncnn23)[C@H](O)[C@@H]1O [Compound 100, ((2R,3S,4R,5R)-5-(4-((S)-2-amino-3-(4-fluorophenyl)propanamido)pyrrolo[2,1-f][1,2,4]triazin-7-yl)-5-cyano-3,4-dihydroxytetrahydrofuran-2-yl)methyl isobutyrate] | 0.03 ×10⁻⁶ cm/s | 2.7 ×10⁻⁶ cm/s | 92 | – | – | –
11 | CC(C)(C)[C@@H](N)C(=O)OC[C@H]1O[C@@](C#N)(c2ccc3c(N)ncnn23)[C@H](O)[C@@H]1O [Compound 411, ((2R,3S,4R,5R)-5-(4-aminopyrrolo[2,1-f][1,2,4]triazin-7-yl)-5-cyano-3,4-dihydroxytetrahydrofuran-2-yl)methyl (R)-2-amino-3,3-dimethylbutanoate] | 0.12 ×10⁻⁶ cm/s | 2.5 ×10⁻⁶ cm/s | 20.7 | – | – | –
12 | CC(C)CC(=O)OC[C@H]1O[C@@](C#N)(c2ccc3c(N)ncnn23)[C@H](O)[C@@H]1OC(=O)C(C)C [Compound 22, ((2R,3S,4R,5R)-5-(4-aminopyrrolo[2,1-f][1,2,4]triazin-7-yl)-5-cyano-4-hydroxy-3-(isobutyryloxy)tetrahydrofuran-2-yl)methyl 3-methylbutanoate] | 7 ×10⁻⁶ cm/s | 10 ×10⁻⁶ cm/s | 1.5 | – | – | –
13 | Cc1oc(=O)oc1COC(=O)Nc1ncnn2c([C@]3(C#N)O[C@H](COC(=O)CC4CCCCC4)[C@@H](OC(=O)[C@@H](N)C(C)C)[C@H]3O)ccc12 [Compound 385, (2R,3S,4R,5R)-5-cyano-2-((2-cyclohexylacetoxy)methyl)-4-hydroxy-5-(4-((((5-methyl-2-oxo-1,3-dioxol-4-yl)methoxy)carbonyl)amino)pyrrolo[2,1-f][1,2,4]triazin-7-yl)tetrahydrofuran-3-yl L-valinate] | < 1 ×10⁻⁶ cm/s | < 1 ×10⁻⁶ cm/s | – | – | – | –
14 | CCCCC(=O)Nc1ncnn2c([C@]3(C#N)O[C@H](COC(=O)CC4CCCCC4)[C@@H](O)[C@H]3O)ccc12 [Compound 284, ((2R,3S,4R,5R)-5-cyano-3,4-dihydroxy-5-(4-pentanamidopyrrolo[2,1-f][1,2,4]triazin-7-yl)tetrahydrofuran-2-yl)methyl 2-cyclohexylacetate] | 1.7 ×10⁻⁶ cm/s | 0.95 ×10⁻⁶ cm/s | 0.56 | – | – | –
15 | CC(=O)O[C@H]1[C@@H](O)[C@](C#N)(c2ccc3c(N)ncnn23)O[C@@H]1COC(=O)Cc1ccccc1 [Compound 45, ((2R,3S,4R,5R)-3-acetoxy-5-(4-aminopyrrolo[2,1-f][1,2,4]triazin-7-yl)-5-cyano-4-hydroxytetrahydrofuran-2-yl)methyl 2-phenylacetate] | – | – | – | 0.8 ×10⁻⁶ cm/s | 3.4 ×10⁻⁶ cm/s | 4.3
16 | CC(C)[C@H](N)C(=O)Nc1ncnn2c([C@]3(C#N)O[C@H](COC(=O)CC4CCCCC4)[C@@H](O)[C@H]3O)ccc12 [Compound 112, [(2R,3S,4R,5R)-5-{4-[(2S)-2-amino-3-methylbutanamido]pyrrolo[2,1-f][1,2,4]triazin-7-yl}-5-cyano-3,4-dihydroxyoxolan-2-yl]methyl 2-cyclohexylacetate] | 0.14 ×10⁻⁶ cm/s | 6.1 ×10⁻⁶ cm/s | 44 | – | – | –
17 | CC(=O)OC[C@H]1O[C@@](C#N)(c2ccc3c(N)ncnn23)[C@H](O)[C@@H]1OC(=O)CC(C)C [Compound 49, (2R,3S,4R,5R)-2-(acetoxymethyl)-5-(4-aminopyrrolo[2,1-f][1,2,4]triazin-7-yl)-5-cyano-4-hydroxytetrahydrofuran-3-yl 3-methylbutanoate] | 3.9 ×10⁻⁶ cm/s | 2.7 ×10⁻⁶ cm/s | 0.7 | – | – | –
18 | CCC(=O)O[C@@H]1[C@@H](COC(=O)C(C)C)O[C@@H](n2cnc3c(NC)nc(N)nc32)[C@]1(C)F [Compound 235, ((2R,3R,4R,5R)-5-(2-amino-6-(methylamino)-9H-purin-9-yl)-4-fluoro-4-methyl-3-(propionyloxy)tetrahydrofuran-2-yl)methyl isobutyrate] | 11 ×10⁻⁶ cm/s | 4.5 ×10⁻⁶ cm/s | 0.4 | – | – | –
